According to ChEMBL document CHEMBL4725394 (J Med Chem, 2020):
Calls of active or inactive are those of the source. The calls are words filed in the database; no cut-off is given here.

Columns and labels:
[1] = molecular target: T1, Free fatty acid receptor 1 (Homo sapiens, UniProt O14842); assay: Agonist activity at human GPR40 expressed in CHO cells incubated for 60 mins by FLIPR based Ca2+ mobilization assay; format: functional, cell-based
[2] = molecular target: T1, Free fatty acid receptor 1; assay: Agonist activity at human GPR40 expressed in CHO cells incubated for 60 mins by FLIPR based Ca2+ mobilization assay relative to gamma-linolenic acid; format: functional, cell-based; details: filed as agonist
[3] = Cytotoxicity in human HepG2 cells assessed as intracellular ATP content level at 30 uM by ATPlite-M assay relative to control; format: cell-based; details: time 1 day, read-out: Activity
[4] = tested on: HepG2; assay: Cytotoxicity in human HepG2 cells assessed as caspase-3/7 activity level at 30 uM by Caspase-GloTM 3/7 assay relative to staurosporine; format: cell-based; details: hepg2, 24 h, time 1 day
[5] = AUC (0 to 24 hrs) in Wistar Kyoto N-STZ-1.5 rat model of streptozotocin-induced diabetes at 0.1 to 1 mg/kg, po followed by glucose challenge during 2-week-dosing study; format: ADME, organism-based; set-up: time 2 weeks, dose 0.1-1; details: in vivo
[6] = Cmax in Wistar Kyoto N-STZ-1.5 rat model of streptozotocin-induced diabetes at 0.1 to 1 mg/kg, po followed by glucose challenge during 2-week-dosing study; format: ADME, organism-based; set-up: time 2 weeks, dose 0.1-1; details: in vivo
[7] = Cmax in diabetic patient at 50 mg, po; format: ADME; set-up: dose 50 mg, route oral; details: human, in vivo
[8] = AUC (0 to 24 hrs) in diabetic patient at 50 mg, po; format: ADME; set-up: dose 50 mg, time < 24 hr, route oral; details: human, in vivo
[9] = molecular target: T1, Free fatty acid receptor 1; assay: Agonist activity at human GPR40 expressed in CHO cells at 10 uM incubated for 60 mins by FLIPR based Ca2+ mobilization assay relative to gamma-linolenic acid; format: functional, cell-based
[10] = molecular target: T1, Free fatty acid receptor 1; assay: Agonist activity at human GPR40 expressed in CHO cells at 1 uM incubated for 60 mins by FLIPR based Ca2+ mobilization assay relative to gamma-linolenic acid; format: functional, cell-based
[11] = Oral bioavailability in Sprague-Dawley rat at 1 mg/kg by high-performance LC-tandem MS analysis; format: ADME, organism-based; details: in vivo
[12] = molecular target: Voltage-gated inwardly rectifying potassium channel KCNH2 (Homo sapiens, UniProt Q12809); assay: Inhibition of human ERG
Chain of Voltage-gated inwardly rectifying potassium channel KCNH2 (Q12809 whole entry): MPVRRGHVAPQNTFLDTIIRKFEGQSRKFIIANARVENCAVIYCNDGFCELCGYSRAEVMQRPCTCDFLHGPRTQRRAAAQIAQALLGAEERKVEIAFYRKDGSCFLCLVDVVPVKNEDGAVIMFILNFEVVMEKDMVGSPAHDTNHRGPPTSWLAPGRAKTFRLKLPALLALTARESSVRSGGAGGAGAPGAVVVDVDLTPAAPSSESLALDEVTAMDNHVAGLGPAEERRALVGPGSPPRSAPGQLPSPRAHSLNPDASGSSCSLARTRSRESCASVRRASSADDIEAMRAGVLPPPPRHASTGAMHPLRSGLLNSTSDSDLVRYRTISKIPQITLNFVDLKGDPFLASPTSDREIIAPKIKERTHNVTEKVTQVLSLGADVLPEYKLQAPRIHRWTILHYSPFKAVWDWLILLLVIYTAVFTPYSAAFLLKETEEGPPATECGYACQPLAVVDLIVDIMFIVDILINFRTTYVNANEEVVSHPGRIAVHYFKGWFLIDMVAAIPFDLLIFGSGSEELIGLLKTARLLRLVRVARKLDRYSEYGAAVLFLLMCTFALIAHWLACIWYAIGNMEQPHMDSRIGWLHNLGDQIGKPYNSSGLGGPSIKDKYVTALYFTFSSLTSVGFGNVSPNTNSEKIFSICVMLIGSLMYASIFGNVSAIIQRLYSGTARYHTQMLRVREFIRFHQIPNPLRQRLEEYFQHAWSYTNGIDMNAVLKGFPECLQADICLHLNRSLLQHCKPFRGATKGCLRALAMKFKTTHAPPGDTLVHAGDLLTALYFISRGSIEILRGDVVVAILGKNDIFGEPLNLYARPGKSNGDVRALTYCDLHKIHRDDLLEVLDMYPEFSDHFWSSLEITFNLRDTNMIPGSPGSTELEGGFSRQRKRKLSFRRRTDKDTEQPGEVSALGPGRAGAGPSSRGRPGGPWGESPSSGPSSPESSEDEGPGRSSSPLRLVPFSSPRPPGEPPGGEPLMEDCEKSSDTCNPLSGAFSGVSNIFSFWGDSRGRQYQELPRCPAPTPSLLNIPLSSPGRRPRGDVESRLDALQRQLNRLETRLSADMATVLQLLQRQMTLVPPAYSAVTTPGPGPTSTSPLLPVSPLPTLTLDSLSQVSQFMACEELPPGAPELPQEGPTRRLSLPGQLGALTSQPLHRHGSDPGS

[13] = tested on: Rattus norvegicus; assay: Stimulation of insulin secretion in Wistar Kyoto N-STZ-1.5 rat model of streptozotocin-induced diabetes at 0.1 to 1 mg/kg, po followed by glucose challenge by ELISA; format: functional, organism-based; details: dose mg/kg 0.1-1
[14] = tested on: Rattus norvegicus; assay: Stimulation of GLP1 release in Wistar Kyoto N-STZ-1.5 rat model of streptozotocin-induced diabetes at 0.1 to 1 mg/kg, po followed by glucose challenge by ELISA; format: functional, organism-based; details: dose mg/kg 0.1-1
[15] = tested on: Rattus norvegicus; assay: Suppression of glucose tolerance in Wistar Kyoto N-STZ-1.5 rat model of streptozotocin-induced diabetes at 0.1 to 1 mg/kg, po followed by glucose challenge; format: functional, organism-based; details: dose mg/kg 0.1-1
[16] = tested on: Rattus norvegicus; assay: Suppression of body weight in Wistar Kyoto N-STZ-1.5 rat model of streptozotocin-induced diabetes at 0.1 to 1 mg/kg, po followed by glucose challenge during 2-week-dosing study; format: functional, organism-based; details: dose mg/kg 0.1-1, time 2.0 weeks
[17] = Oral bioavailability in ICR mouse at 1 mg/kg by high-performance LC-tandem MS analysis; format: ADME, organism-based; details: in vivo
[18] = Total clearance in Sprague-Dawley rat at 0.1 mg/kg, iv by high-performance LC-tandem MS analysis; format: ADME, organism-based; details: in vivo
[19] = Volume of distribution at steady state in Sprague-Dawley rat at 0.1 mg/kg, iv by high-performance LC-tandem MS analysis; format: ADME, organism-based; details: in vivo, read-out: Vdss
[20] = Cmax in Sprague-Dawley rat at 1 mg/kg, po by high-performance LC-tandem MS analysis; format: ADME, organism-based; set-up: route oral, dose 1 mg/kg; details: in vivo
[21] = AUC (0 to 8 hrs) in Sprague-Dawley rat at 1 mg/kg, po by high-performance LC-tandem MS analysis; format: ADME, organism-based; set-up: time < 8 hr, route oral, dose 1 mg/kg; details: in vivo
[22] = MRT in Sprague-Dawley rat at 1 mg/kg, po by high-performance LC-tandem MS analysis; format: ADME, organism-based; details: in vivo
[23] = Total clearance in ICR mouse at 0.1 mg/kg, iv by high-performance LC-tandem MS analysis; format: ADME, organism-based; details: in vivo
[24] = Volume of distribution at steady state in ICR mouse at 0.1 mg/kg, iv by high-performance LC-tandem MS analysis; format: ADME, organism-based; details: in vivo, read-out: Vdss
[25] = Cmax in ICR mouse at 1 mg/kg, po by high-performance LC-tandem MS analysis; format: ADME, organism-based; set-up: route oral, dose 1 mg/kg; details: in vivo
[26] = AUC (0 to 8 hrs ) in ICR mouse at 1 mg/kg, po by high-performance LC-tandem MS analysis; format: ADME, organism-based; set-up: time < 8 hr, route oral, dose 1 mg/kg; details: in vivo
[27] = MRT in ICR mouse at 1 mg/kg, po by high-performance LC-tandem MS analysis; format: ADME, organism-based; details: in vivo

T1 sequence (O14842 whole entry): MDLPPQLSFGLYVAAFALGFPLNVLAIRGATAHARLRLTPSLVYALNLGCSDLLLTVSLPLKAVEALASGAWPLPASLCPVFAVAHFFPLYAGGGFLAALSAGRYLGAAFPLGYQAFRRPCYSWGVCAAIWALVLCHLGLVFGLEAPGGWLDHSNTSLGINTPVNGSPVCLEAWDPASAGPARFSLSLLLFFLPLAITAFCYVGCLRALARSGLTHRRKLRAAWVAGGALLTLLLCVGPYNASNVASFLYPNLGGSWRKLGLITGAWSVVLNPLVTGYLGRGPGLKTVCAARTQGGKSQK

Row | Structure (SMILES) | EC50 [1] | Emax [2] | viability at 24 h, 30 µM [3] | Activity [4] | further results
1 | COc1ccc(C(=O)N(C)CC(C)(C)C)c(N2CCC(COc3cccc(C(CC(=O)O)C4CC4)c3)CC2)c1 (stereo not given) | 100 nM | 107% | 82.2% | 6.6% | 
2 | COc1ccc(C(=O)N(CC(C)(C)C#N)c2ccccn2)c(N2CCC(COc3cccc(C(CC(=O)O)C4CC4)c3)CC2)c1 (stereo not given) | 160 nM | 108% |  |  | 
3 | COc1ccc(C(=O)N(CC(C)(C)OC)c2ccccn2)c(N2CCC(COc3cccc(C(CC(=O)O)C4CC4)c3)CC2)c1 (stereo not given) | 100 nM | 105% |  |  | 
4 | COc1ccc(F)c(-c2ccc(COc3cccc([C@@H](CC(=O)O)C4CC4)c3)nc2CC(C)(C)C)c1 | 150 nM | 66% |  |  | 
5 | COc1ccc(CCC(C)(C)C)c(N2CCC(COc3cccc(C(CC(=O)O)C4CC4)c3)CC2)c1 (stereo not given) | 34 nM | 110% | 0.1% | 67.3% | 
6 | COc1ccc(C(C)C)c(N2CCC(COc3cccc(C(CC(=O)O)C4CC4)c3)CC2)c1 (stereo not given) | 120 nM | 117% | 0.1% | 43.4% | 
7 | COc1ccc(C(=O)N(C)c2ccccc2)c(N2CCC(COc3cccc(C(CC(=O)O)C4CC4)c3)CC2)c1 (stereo not given) | 140 nM | 101% | 79.3% | 2.8% | 
8 | COc1ccc(C(=O)N(CC(C)(C)C)c2cccc(C)n2)c(N2CCC(COc3cccc(C4(CC(=O)O)COC4)c3)CC2)c1 | 840 nM | 115% |  |  | 
9 | Cc1cc(OCCCS(C)(=O)=O)cc(C)c1-c1cccc(COc2ccc3c(c2)OC[C@H]3CC(=O)O)c1 |  |  |  |  | AUC(0-t) at 336 h [5]: 255 ng·h/mL; Cmax [6]: 39.8 ng/mL; Cmax [7]: 5300 ng/mL; AUC(0-t) at 24 h [8]: 100000 ng·h/mL
10 | COc1ccc(C(=O)N(CC(C)C)c2ccccn2)c(N2CCC(COc3cccc(C(CC(=O)O)C4CC4)c3)CC2)c1 (stereo not given) | 29 nM | 107% |  |  | 
11 | COc1ccc(C)c(N2CCC(COc3cccc(C(CC(=O)O)C4CC4)c3)CC2)c1 (stereo not given) | 270 nM | 113% | 67.4% | 8.3% | 
12 | COc1ccc(C(=O)N(CC(C)(C)C)c2cccc(C)n2)c(N2CCC(COc3cccc(C(CC(=O)O)C4CC4)n3)CC2)c1 (stereo not given) |  |  |  |  | Activity [9]: 39%
13 | COc1cccc(N2CCC(COc3cccc(C(CC(=O)O)C4CC4)c3)CC2)c1 (stereo not given) |  |  | 92% | -1.1% | Activity ([9]; filed as agonist): 91%; Activity [10]: 8%
14 | COc1ccc(C(=O)N(CC(C)(C)C)c2cccc(C)n2)c(N2CCC(COc3cc([C@@H](CC(=O)O)C4CC4)ccn3)CC2)c1 | 12 nM | 108% | 92.1% |  | AUC(0-t) at 336 h [5]: 626 ng·h/mL; bioavailability [11]: 16%; IC50 [12]: > 10000 nM; Activity [13]: Active; Activity [14]: Active; Activity [15]: Active; Cmax [6]: 139 ng/mL; Activity [16]: Active; bioavailability [17]: 26%; clearance [18]: 24.6 mL/min/kg; Vd [19]: 3.09 L/kg; Cmax [20]: 19.9 ng/mL; AUC(0-t) at 8 h [21]: 127 ng·h/mL; MRT [22]: 4.1 h; clearance [23]: 43.1 mL/min/kg; Vd [24]: 1.35 L/kg; Cmax [25]: 33.2 ng/mL; AUC(0-t) at 8 h [26]: 98.7 ng·h/mL; MRT [27]: 2.3 h
15 | COc1ccc(C(=O)N(CC(C)(C)C)c2cccc(C)n2)c(N2CCC(COc3cccc(C(CC(=O)O)OC)c3)CC2)c1 (stereo not given) | 62 nM | 109% |  |  | 
16 | COc1ccc(C(=O)N(CC(C)(C)C)c2cccc(C)n2)c(N2CCC(COc3cccc(C(CC(=O)O)C4CC4)c3)CC2)c1 (stereo not given) | 17 nM | 109% |  |  | 
